{
  "source": "patent US20240016743A1",
  "about": "“A METHOD FOR PRODUCING ENTACAPONE TABLETS” (CHINA MEHECO KANGLI PHARMA CO., LTD, priority 2021, published 2024)",
  "origin": "cited, not measured here",
  "conditions": "clinical trials",
  "data": [
    {"smiles": "N[C@@H](Cc1ccc(O)c(O)c1)C(=O)O", "note": "[levodopa]", "values": [
      {"measurement": "prolong the \"On\" time", "value": 16, "unit": "%"},
      {"measurement": "shorten the \"Off\" time", "value": 24, "unit": "%"}
    ]}
  ]
}
